Like-named read-outs stand apart in the source and are kept apart here.
Assays:
[1] = tested on: Human mammary cancer MCF-7 cells; assay: Cytotoxicity in MCF-7 cells (72 h treatment, Hoechst 33342 staining, IN Cell Analyzer imaging); format: cell-based
Method: (§1) Human mammary cancer MCF-7 cells were maintained under standard conditions using Dulbecco's Modified Eagle Medium Nutrient Mixture F12 (DMEM-F12, GIBCO #12400-024) accompanied by 10% fetal calf serum (FCS, Atlanta Biologicals #S 11550). Cells were cultured to 80% confluency before being lifted with 0.05% Trypsin/EDTA (GIBCO #1404912) for 2 minutes, spun and resuspended in new media.
(§2) MCF7 cells were seeded at a density of 10,000 cells per well in 96 well plates (BD Falcon #353220). Cells were grown for 24 h, washed in phosphate-buffered saline (PBS, Life Technologies #14080-055), media was then replaced with DMEM-F12 at 5% FCS. At this time Ellipticine, including Aza-Ellipticine compounds, were added from a treatment plate (3 μL per condition) for a total volume of 150 μL (final concentrations of 0.1, 1, 3, 10 μM) and were incubated under standard conditions for an additional 72 h.
(§3) After 72 h of treatment with drugs, cells were fixed by adding 50 μL of 10% Buffered Formalin Phosphate and stained with 2 μM Hoechst 33342 (AnaSpec #83218) stock (20000×) to media for 1 h. Images were then captured with the IN Cell Analyzer 2000 (GE Healthcare UK Ltd., Buckinghamshire, UK).

[2] = Ramkumar and Nagarajan, 2014; cited from earlier work
[3] = Cytotoxicity in MCF-7 cells (72 h treatment, Hoechst 33342 staining, IN Cell Analyzer imaging); format: cell-based, Human; settings: human
Method: as §1, §2, §3

Compound	EC50 at 72 h [3] [nM]	also measured
Cc1c2ccncc2c(C)c2c1[nH]c1ccc(O)cc12 [9-Hydroxy ellipticine, reference compound]		EC50 ([1]; MCF-7 cells, 72 h treatment, 5% FCS, concentrations 0.1, 1, 3, 10 μM): 900 nM; potency compared with parent ellipticine [2]: forty times more potent than its parent
c1ccc2c(c1)[nH]c1nc3cnccc3cc12 [Example 2, 10H-indolo[2,3-b][1,7]naphthyridine]	6000	
COc1ccc2[nH]c3nc4cccnc4c(C)c3c2c1 [Example 7, 9-methoxy-11-methyl-6H-indolo[2,3-b][1,5]naphthyridine]	14000	
CCCn1c2ccc(OC)cc2c2cc3ncccc3nc21 [Example 8, 9-methoxy-6-propyl-6H-indolo[2,3-b][1,5]naphthyridine]	13300	
COc1ccc2[nH]c3nc4cccnc4cc3c2c1 [Example 12, 9-methoxy-6H-indolo[2,3-b][1,5]naphthyridine]	800	
COc1ccc2[nH]c3nc4cnccc4cc3c2c1 [Example 13, 7-methoxy-10H-indolo[2,3-b][1,7]naphthyridine]	17000	
Oc1ccc2[nH]c3nc4cccnc4cc3c2c1 [Example 14, 6H-indolo[2,3-b][1,5]naphthyridin-9-ol]	5000	
COc1cccc2c1[nH]c1nc3cccnc3cc12 [Example 15, 7-methoxy-6H-indolo[2,3-b][1,5]naphthyridine]		Cytotoxicity, EC50 (result in words) [1]: No effect
Cc1ccc2[nH]c3nc4cccnc4cc3c2c1 [Example 17, 9-methyl-6H-indolo[2,3-b][1,5]naphthyridine]	900	
CCCCc1c2ncccc2nc2[nH]c3ccc(OC)cc3c12 [Example 18, 11-butyl-9-methoxy-6H-indolo[2,3-b][1,5]naphthyridine]	1000	
CC(=O)Oc1ccc2c(c1)c1cc3ncccc3nc1n2C(C)=O [Example 19, 6-acetyl-6H-indolo[2,3-b][1,5]naphthyridin-9-yl acetate]	1000	
Cc1c2ccncc2c(C)c2c1[nH]c1ccccc12 [ellipticine]		EC50 at 72 h ([3]; MCF-7 cells, 72 h treatment, 5% FCS, concentrations 0.1, 1, 3, 10 μM, read-out: Cytotoxicity, EC50): 1000 nM
